Source: PMC4564171 (PLoS ONE, 2015)
“And” between values parts separate entries of the source, which are not always exact repeats. Equal values may be shown once.

Assays:
[1] = test system: initial S. flexneri invasion; parameters: method as in PMID 24549153, PMID 20237205; settings: at concentrations at or below its IC50 in the reporter assay; cited from earlier work
[2] = test system: spread of an active S. flexneri infection; settings: at concentrations at or below their IC50s in the reporter assay; cited from earlier work
[3] = test system: 60 bp pvirB FID DNA probe; experiment: Fluorescence intercalator displacement (FID) assay, 60 bp probe; format: binding, Shigella flexneri; settings: for 60 bp pvirB FID probe %fluorescence: ethidium bromide 45 μM, probe 1.5 μM
Procedure: (§1) The FID protocol was based on previously published studies and was conducted in triplicate. For the assay, black, half-area, 96-well plates (Corning, Twerksbury, MA) were used. First, 70 μL of ethidium bromide in Tris Buffer (0.1 M Tris HCl, 0.1 M NaCl, pH 8.0) was added to all wells. The concentration of ethidium bromide was contingent upon the length of the DNA probe that was used. For the 60 bp pvirB FID DNA probe, the final ethidium bromide concentration used was 45 μM; whereas, for the 10 bp pvirB (51–60) FID DNA probe, the final ethidium bromide concentration used was 7.5 μM. Next, 10 μL of either pvirB FID DNA probes (10 or 60 bp) in TE/NaCl buffer (see above) or 10 μL of TE/NaCl buffer (background fluorescence control) were added to the appropriate wells of the plate. The final concentrations of the pvirB FID DNA probes were 1.5 μM. Lastly, 20 μL of test compound (either 19615 or Berenil) in 10% DMSO Tris Buffer or 20 μL of 10% DMSO Tris Buffer (100% fluorescence control) were added to the appropriate wells of the plate. The final concentrations of each test compound ranged from 12.5 μM to 100 μM. After the addition of all reagents, the plates were protected from light and allowed to equilibrate for 30 min on an orbital shaker at room temperature. Following equilibration, fluorescence was measured […] using a Biotek Synergy H1 plate reader (Winooski, VT). The average background fluorescence was subtracted from all data generated and %fluorescence was calculated for all wells containing compound via the following formula: %fluorescence=Ftest/F100%^*100 where: Ftest = the average fluorescence value obtained for each test compound and F100% = the average fluorescence value obtained for each 100% fluorescence control.

[4] = test system: 60 bp pvirB FID (DNA, duplex) AGAATATTATTCTTTTATCCAATAAAGATAAATTGCATCAATCCAGCTATTAAAATAGTA/TACTATTTTAATAGCTGGATTGATGCAATTTATCTTTATTGGATAAAAGAATAATATTCT; experiment: fluorescent intercalator displacement (ethidium bromide); settings: 0.1 M NaCl; 0.1 M Tris-HCl pH 8.0, room temperature; 45 μM ethidium displaced; 1.5 μM DNA; 100 μM compound
[5] = test system: 10 bp pvirB 51-60 FID (DNA, duplex) TAAAATAGTA/TACTATTTTA; experiment: as above; settings: 0.1 M NaCl; 0.1 M Tris-HCl pH 8.0, room temperature; 7.5 μM ethidium displaced; 1.5 μM DNA; 100 μM compound
[6] = test system: pvirB 1-10 (DNA, duplex) AGAATATTAT/ATAATATTCT; experiment: as above; settings: 0.1 M NaCl; 0.1 M Tris-HCl pH 8.0; ethidium displaced; 2 μM compound, single concentration
[7] = test system: pvirB 31-40 (DNA, duplex) AATTGCATCA/TGATGCAATT; experiment: as above; settings: 0.1 M NaCl; 0.1 M Tris-HCl pH 8.0; ethidium displaced; 2 μM compound, single concentration
[8] = test system: 10 bp pvirB FID DNA probes; experiment: Fluorescence intercalator displacement (FID) assay, 10 bp probes; format: binding, Shigella flexneri; settings: for 10 bp pvirB 51–60 FID probe %fluorescence: ethidium bromide 7.5 μM, probe 1.5 μM
Procedure: as §1, with “The final concentrations of each test compound ranged from 12.5 μM to 100 μM.” left out

[9] = test system: pvirB 21-30 (DNA, duplex) AATAAAGATA/TATCTTTATT; experiment: fluorescent intercalator displacement (ethidium bromide); settings: 0.1 M NaCl; 0.1 M Tris-HCl pH 8.0; ethidium displaced; 2 μM compound, single concentration
[10] = test system: pvirB 11-20 (DNA, duplex) TCTTTTATCC/GGATAAAAGA; experiment: as above; settings: 0.1 M NaCl; 0.1 M Tris-HCl pH 8.0; ethidium displaced; 2 μM compound, single concentration

In the case of `COc1ccc(NC(=O)c2nc(S(C)(=O)=O)ncc2Cl)cc1Cl` [compound 144092], the “Inhibition of initial S. flexneri invasion” value [1] is listed as “approximately 50%” and the “Inhibition of the spread of an active S. flexneri infection” value [2] is listed as “approximately 75%”.

With `CC(=O)NCC(=O)O.CC(=O)NCC(=O)O.N=C(N)c1ccc(N=NNc2ccc(C(=N)N)cc2)cc1` [Berenil, reference compound] the “Displacement of ethidium bromide from the pvirB DNA probes (FID)” value ([3]; 12.5 to 100 μM, both 60 bp and 10 bp probes) was “able to displace ethidium bromide”, the “60 bp pvirB FID probe %fluorescence” value ([3]; compound 12.5 μM) was 76% ± 2% and the “60 bp pvirB FID probe %fluorescence” value ([3]; compound 25 μM) was 67% ± 2%. The “60 bp pvirB FID probe %fluorescence” value ([3]; compound 50 μM) was 58% ± 1%, the “60 bp pvirB FID probe %fluorescence” value ([3]; compound 100 μM) was 48% ± 2% and the “%fluorescence” value [4] was 48 ± 2%. The “%fluorescence” value [5] was 46 ± 1%, the “%fluorescence” value [6] was 45 ± 2% and the “%fluorescence” value [7] was 89 ± 5%. The “%fluorescence, 10 bp fragment pvirB 21-30” value ([8]; compound 2 μM, preliminary FID screen, 5'-AATAAAGATA-3') was 81% ± 4%, the “%fluorescence, 10 bp fragment pvirB 31-40” value ([8]; compound 2 μM, preliminary FID screen, 5'-AATTGCATCA-3') was 89% ± 5% and the “%fluorescence, 10 bp fragment pvirB 1-10” value ([8]; compound 2 μM, preliminary FID screen, 5'-AGAATATTAT-3') was 45% ± 2%. For the same compound, the “%fluorescence, 10 bp fragment pvirB 41-50” value ([8]; compound 2 μM, preliminary FID screen, 5'-ATCCAGCTAT-3') was 96% ± 2%, the “%fluorescence, 10 bp fragment pvirB 51-60” value ([8]; compound 2 μM, preliminary FID screen, 5'-TAAAATAGTA-3') was 67% and 67% ± 0% and the “%fluorescence, 10 bp fragment pvirB 11-20” value ([8]; compound 2 μM, preliminary FID screen, 5'-TCTTTTATCC-3') was 66% ± 0%. The “10 bp pvirB 51–60 FID probe %fluorescence” value ([8]; compound 12.5 μM) was 52% ± 1%, the “10 bp pvirB 51–60 FID probe %fluorescence” value ([8]; compound 25 μM) was 51% ± 2% and the “10 bp pvirB 51–60 FID probe %fluorescence” value ([8]; compound 50 μM) was 51% ± 1%. The “10 bp pvirB 51–60 FID probe %fluorescence” value ([8]; compound 100 μM) was 46% ± 1%, the “%fluorescence” value [9] was 81 ± 4% and the “%fluorescence” value [10] was 66 ± 0%.
